# Measured values published in patent publication US8440710B2, “HSL inhibitors useful in the treatment of diabetes” (Hoffmann-La Roche Inc., priority 2009, dated 2013).
# Target: T1, human HSL (Homo sapiens, UniProt Q05469)
# T1 construct: generate a full length human HSL ORF with a 3′-His6 tag; made in house; host or cells: High 5 insect cells (baculovirus, pFast-BAC)
# T1 sequence (Q05469 1-1076): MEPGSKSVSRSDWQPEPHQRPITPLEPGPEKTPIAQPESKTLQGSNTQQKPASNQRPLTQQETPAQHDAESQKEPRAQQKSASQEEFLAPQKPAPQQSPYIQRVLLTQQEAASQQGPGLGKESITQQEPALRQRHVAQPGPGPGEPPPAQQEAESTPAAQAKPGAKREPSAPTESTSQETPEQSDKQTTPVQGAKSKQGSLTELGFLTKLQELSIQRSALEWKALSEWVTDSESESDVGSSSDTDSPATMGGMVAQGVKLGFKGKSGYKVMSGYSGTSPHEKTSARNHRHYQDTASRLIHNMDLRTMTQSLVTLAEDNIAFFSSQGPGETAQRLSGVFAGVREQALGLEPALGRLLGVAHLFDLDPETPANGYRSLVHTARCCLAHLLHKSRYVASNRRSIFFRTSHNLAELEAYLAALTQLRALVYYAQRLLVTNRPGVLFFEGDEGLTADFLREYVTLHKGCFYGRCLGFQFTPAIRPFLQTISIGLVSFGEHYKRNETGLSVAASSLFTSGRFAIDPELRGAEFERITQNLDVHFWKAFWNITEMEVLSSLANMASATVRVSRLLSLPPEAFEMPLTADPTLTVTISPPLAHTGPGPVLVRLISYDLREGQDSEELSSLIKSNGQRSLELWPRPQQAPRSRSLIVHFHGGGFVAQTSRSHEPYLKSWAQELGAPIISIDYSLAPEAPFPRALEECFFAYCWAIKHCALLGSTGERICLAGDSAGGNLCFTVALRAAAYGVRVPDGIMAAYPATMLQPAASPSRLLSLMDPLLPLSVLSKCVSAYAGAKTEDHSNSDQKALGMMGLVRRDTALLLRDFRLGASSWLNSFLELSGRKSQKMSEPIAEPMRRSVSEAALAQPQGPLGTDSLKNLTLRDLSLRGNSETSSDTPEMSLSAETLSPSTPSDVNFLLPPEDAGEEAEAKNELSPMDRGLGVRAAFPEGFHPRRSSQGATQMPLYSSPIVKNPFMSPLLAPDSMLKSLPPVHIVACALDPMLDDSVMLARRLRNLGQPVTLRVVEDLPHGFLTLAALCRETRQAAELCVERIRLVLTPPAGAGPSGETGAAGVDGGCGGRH
# Assay: Human Hormone-Sensitive Lipase (HSL) enzyme inhibition assay (colorimetric, DMPT substrate)
# Assay type: biochemical
# Conditions: human full length HSL-His6, 2,3-dimercapto-1-propanol tributyrate substrate, 37° C. 20 minutes, absorbance at 405 nm; read-out: HSL hum IC50
# How it was run: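 Full-length human HSL with C-terminal His6, expressed in baculovirus-infected High 5 cells and Ni-NTA purified, was added (15 ug/ml stock) to 1.5 mM DMPT in 100 mM MOPS pH 7.2, 0.2 mg/ml fatty acid-free BSA containing compound. After 20 min at 37 °C, DTNB with SDS/Triton X-100 was added; A405 read after 15 min at RT.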
row,IC50 [µM],Structure (SMILES)
1,0.05,"O=C1N(c2ccc([C@@H](O)C(F)(F)F)cc2)CC[C@]12CC[C@@](O)(C1CC1)CC2 [Example 201, (5α,8α)-8-cyclopropyl-8-hydroxy-2-(4-((R)-2,2,2-trifluoro-1-hydroxyethyl)phenyl)-2-aza-spiro[4.5]decan-1-one]"
2,0.01,"O=C1N(c2ccc([C@@H](O)C(F)(F)F)cc2)CC[C@]12CC[C@@](O)(C1CCCC1)CC2 [Example 202, (5α,8α)-8-cyclopentyl-8-hydroxy-2-(4-((R)-2,2,2-trifluoro-1-hydroxyethyl)phenyl)-2-aza-spiro[4.5]decan-1-one]"
3,0.01,"CC(C)c1ccc(N2CC[C@]3(CC[C@@](O)(C(C)C)CC3)C2=O)cc1 [Example 203, (5α,8α)-8-hydroxy-8-isopropyl-2-(4-isopropylphenyl)-2-aza-spiro[4.5]decan-1-one]"
4,0.02,"CCC[C@]1(O)CC[C@]2(CCN(c3ccc(C(C)C)cc3)C2=O)CC1 [Example 204, (5α,8α)-8-hydroxy-2-(4-isopropylphenyl)-8-propyl-2-aza-spiro[4.5]decan-1-one]"
5,0.01,"CC(C)c1ccc(N2CC[C@]3(CC[C@@](O)(c4ccccc4)CC3)C2=O)cc1 [Example 205, (5α,8α)-8-hydroxy-2-(4-isopropylphenyl)-8-phenyl-2-aza-spiro[4.5]decan-1-one]"
6,0.01,"CC(C)Oc1ccc(N2CC[C@]3(CC[C@@](O)(c4ccccc4)CC3)C2=O)cc1 [Example 206, (5α,8α)-8-hydroxy-2-(4-isopropoxyphenyl)-8-phenyl-2-aza-spiro[4.5]decan-1-one]"
7,0.09,"CC(C)[C@]1(O)CC[C@]2(CCN(c3ccc(C(O)C(F)F)cc3)C2=O)CC1 (stereo partly drawn) [Example 207, (5α,8α)-2-(4-(2,2-difluoro-1-hydroxyethyl)phenyl)-8-hydroxy-8-isopropyl-2-aza-spiro[4.5]decan-1-one]"
8,0.03,"CCC[C@]1(O)CC[C@]2(CCN(c3ccc(C(F)(F)F)cc3)C2=O)CC1 [Example 208, (5α,8α)-8-hydroxy-8-propyl-2-(4-(trifluoromethyl)phenyl)-2-aza-spiro[4.5]decan-1-one]"
9,0.03,"CC(C)[C@]1(O)CC[C@]2(CCN(c3ccc(C(F)(F)F)cc3)C2=O)CC1 [Example 209, (5α,8α)-8-hydroxy-8-isopropyl-2-(4-(trifluoromethyl)phenyl)-2-aza-spiro[4.5]decan-1-one]"
10,0.05,"COC[C@]1(O)CC[C@]2(CCN(c3ccc(OC(C)C)cc3)C2=O)CC1 [Example 210, (5α,8α)-8-hydroxy-2-(4-isopropoxyphenyl)-8-(methoxymethyl)-2-aza-spiro[4.5]decan-1-one]"
11,0.01,"CC(C)Oc1ccc(N2CC[C@]3(CC[C@@](O)(c4ccsc4)CC3)C2=O)cc1 [Example 211, (5α,8α)-8-hydroxy-2-(4-isopropoxyphenyl)-8-(thiophen-3-yl)-2-aza-spiro[4.5]decan-1-one]"
12,0.01,"CC(C)Oc1ccc(N2CC[C@]3(CC[C@@](O)(c4c(Br)nnn4C)CC3)C2=O)cc1 [Example 212, (5α,8α)-8-(5-Bromo-3-methyl-3H-[1,2,3]triazol-4-yl)-8-hydroxy-2-(4-isopropoxy-phenyl)-2-aza-spiro[4.5]decan-1-one]"
13,0.39,CC(C)Oc1ccc(N2CC[C@]3(CC[C@@](O)(c4cnnn4C)CC3)C2=O)cc1 [Example 213]
14,0.05,"Cn1nnc(Br)c1[C@]1(O)CC[C@]2(CCN(c3ccc(C(F)(F)F)cc3)C2=O)CC1 [Example 214, (5α,8α)-8-(5-Bromo-3-methyl-3H-[1,2,3]triazol-4-yl)-8-hydroxy-2-(4-trifluoromethyl-phenyl)-2-aza-spiro[4.5]decan-1-one]"
15,0.59,"Cn1nncc1[C@]1(O)CC[C@]2(CCN(c3ccc(C(F)(F)F)cc3)C2=O)CC1 [Example 215, (5α,8α)-8-Hydroxy-8-(3-methyl-3H-[1,2,3]triazol-4-yl)-2-(4-trifluoromethyl-phenyl)-2-aza-spiro[4.5]decan-1-one]"
16,0.01,"CC(C)c1ccc(N2CC[C@]3(CC[C@@](O)(COCC(F)(F)F)CC3)C2=O)cc1 [Example 216, (5α,8α)-8-hydroxy-2-(4-isopropylphenyl)-8-((2,2,2-trifluoroethoxy)methyl)-2-aza-spiro[4.5]decan-1-one]"
17,0.05,"CC(C)Oc1ccc(N2CC[C@]3(CC[C@@](O)(c4ccn(C)n4)CC3)C2=O)cc1 [Example 217, (5α,8α)-8-hydroxy-2-(4-isopropoxyphenyl)-8-(1-methyl-1H-pyrazol-3-yl)-2-aza-spiro[4.5]decan-1-one]"
18,0.04,"COC[C@]1(O)CC[C@]2(CCN(c3ccc(C(C)C)cc3)C2=O)CC1 [Example 218, (5α,8α)-8-hydroxy-2-(4-isopropylphenyl)-8-(methoxymethyl)-2-aza-spiro[4.5]decan-1-one]"
19,0.011,"O=C1N(c2ccc(C(F)(F)F)cc2)CC[C@]12CC[C@@](O)(COCC(F)(F)F)CC2 [Example 219, (5α,8α)-8-hydroxy-8-((2,2,2-trifluoroethoxy)methyl)-2-(4-(trifluoromethyl)phenyl)-2-aza-spiro[4.5]decan-1-one]"
20,0.02,Cc1cc(C[C@]2(O)CC[C@]3(CCN(c4ccc(OC(C)C)cc4)C3=O)CC2)no1 [Example 220]
21,1.16,"Cc1cc(C[C@]2(O)CC[C@@]3(CCN(c4ccc(OC(C)C)cc4)C3=O)CC2)no1 [Example 221, (5α,8β)-8-hydroxy-2-(4-isopropoxyphenyl)-8-((5-methylisoxazol-3-yl)methyl)-2-aza-spiro[4.5]decan-1-one]"
22,0.103,"C=Cc1nnn(C)c1[C@]1(O)CC[C@]2(CCN(c3ccc(OC(C)C)cc3)C2=O)CC1 [Example 222, (5α,8α)-8-hydroxy-2-(4-isopropoxyphenyl)-8-(1-methyl-4-vinyl-1H-1,2,3-triazol-5-yl)-2-aza-spiro[4.5]decan-1-one]"
23,0.05,"COC[C@]1(O)CC[C@]2(CCN(c3ccc(C4CC4)cc3)C2=O)CC1 [Example 223, (5α,8α)-2-(4-Cyclopropyl-phenyl)-8-hydroxy-8-methoxymethyl-2-aza-spiro[4.5]decan-1-one]"
24,0.15,"CCc1ccc(N2CC[C@]3(CC[C@@](O)(COC)CC3)C2=O)cc1 [Example 224, (5α,8α)-2-(4-Ethyl-phenyl)-8-hydroxy-8-methoxymethyl-2-aza-spiro[4.5]decan-1-one]"
25,0.06,"CCOC[C@]1(O)CC[C@]2(CCN(c3ccc(CC)cc3)C2=O)CC1 [Example 225, (5α,8α)-8-Ethoxymethyl-2-(4-ethyl-phenyl)-8-hydroxy-2-aza-spiro[4.5]decan-1-one]"
26,0.02,"CCCOC[C@]1(O)CC[C@]2(CCN(c3ccc(CC)cc3)C2=O)CC1 [Example 226, (5α,8α)-2-(4-Ethyl-phenyl)-8-hydroxy-8-propoxymethyl-2-aza-spiro[4.5]decan-1-one]"
27,0.7,"CCc1ccc(N2CC[C@]3(CC[C@](O)(COc4ccccc4)CC3)C2=O)cc1 [Example 227, (5α,8β)-2-(4-Ethyl-phenyl)-8-hydroxy-8-phenoxymethyl-2-aza-spiro[4.5]decan-1-one]"
28,0.02,"CCc1ccc(N2CC[C@]3(CC[C@@](O)(COc4ccccc4)CC3)C2=O)cc1 [Example 228, (5α,8α)-2-(4-Ethyl-phenyl)-8-hydroxy-8-phenoxymethyl-2-aza-spiro[4.5]decan-1-one]"
